Laboratory results from patent US5576438A, “Isoserine derivatives and their use as leukotriene antagonists” (Leo Pharmaceutical Products Ltd. A/S (L.o slashed.vens …, priority 1992, dated 1996).
Counter-ions that a name gives are not always drawn. Like-named read-outs stand apart in the source and are kept apart here.

Target: T1, LTD4 receptor (Cavia porcellus, UniProt Q2NNR5)
T1 construct: guinea-pig lung membranes; from tissue; host or cells: guinea-pig lung membranes
T1 sequence (Q2NNR5 1-340): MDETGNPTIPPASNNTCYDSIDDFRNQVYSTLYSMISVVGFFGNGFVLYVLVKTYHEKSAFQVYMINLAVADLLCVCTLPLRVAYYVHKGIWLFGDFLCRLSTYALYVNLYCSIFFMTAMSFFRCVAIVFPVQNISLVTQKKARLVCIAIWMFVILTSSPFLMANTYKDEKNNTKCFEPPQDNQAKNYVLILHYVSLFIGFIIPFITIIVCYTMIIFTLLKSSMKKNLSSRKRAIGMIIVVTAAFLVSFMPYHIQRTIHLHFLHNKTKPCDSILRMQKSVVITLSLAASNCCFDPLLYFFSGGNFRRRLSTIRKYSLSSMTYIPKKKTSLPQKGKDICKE
Experiment: [3H]LTD4 competition binding to guinea-pig lung membranes
Conditions: negative logarithm of molar concentration, read-out: pIC50 for [3H]LTD4 binding (converted)
Excerpt: It is of importance to investigate the receptor binding properties of leukotriene antagonists in relation to their inhibition of smooth muscle contraction. Receptor binding studies may be performed with guinea-pig lung membranes in a direct competition assay between a leukotriene antagonist and [^3 H]LTD4 for binding to the LTD4 receptor ^10,^11. […] These values indicate that the affinities of the compounds for the LTD4 receptor are very high, also in the presence of albumin.

[1] = presence of 0.1% human serum albumin

Row | Structure (SMILES) | IC50 (absence of human serum albumin) [nM] | IC50 [1] [nM]
1 | O=C(O)[C@H](O)[C@H](Nc1cccc(/C=C/c2ccc3ccc(Cl)cc3n2)c1)c1ccccc1 (relative stereo) [Example 6, E-(2R,3R;2S,3S)-N-3-[2-(7-chloroquinolyl)-2-ethenyl]-phenyl-3-phenyl isoserine, sodium salt] | 2 | 6.31
2 | O=C(O)[C@H](O)[C@H](Nc1cccc(/C=C/c2ccc3ccccc3n2)c1)c1ccccc1 (relative stereo) [Example 17, E-(2R,3R;2S,3S)-3-phenyl-N-3-[(2-quinolyl)-2-ethenyl]-phenyl isoserine, sodium salt] | 2.51 | 20
